# Laboratory results: patent US10165777B2, “Substituted pyrazolylpyrazole derivative and use of same as herbicide” (KYOYU AGRI CO., LTD., priority 2015, dated 2019)
# Assays:
# Format in all cases: in vivo
# Oryza sativa = assay: Paddy herbicidal activity test, phytotoxicity to transplanted rice; details: rice transplanted in 2.0 leaf stage, 30 days
# Procedure: (§1) 1. Paddy Herbicidal Activity Test Rice paddy soil was filled into a 1/10000 are pot followed by the addition of suitable amounts of water and chemical fertilizer, kneading, seeding with Echinochloa crus-galli, Monochoria vaginalis and Scirpus juncoides and maintaining in an irrigated state at a water depth of 3 cm. Wettable powders of Target Compound (I) shown in Table 1 prepared in compliance with the preparation examples were diluted with a suitable amount of water, rice plants in the 2.0 leaf stage were transplanted during 3.5 leaf stage of Echinochloa crus-galli, and treated by dropping in chemical in the prescribed amount per 10 are using a pipette. After treating for 30 days in a glass greenhouse at an average atmospheric temperature of 30° C., the herbicidal efficacy thereof was investigated. Evaluation of herbicidal efficacy was carried out by comparing growth inhibition rate (%) with an untreated group, while evaluation of phytotoxicity was carried out by comparing growth inhibition rate (%) with the state of a complete eradication group, and were evaluated at 11 levels indicated below.
# Echinochloa crus-galli = assay: Paddy herbicidal activity test; details: irrigated pot, treated at 3.5 leaf stage of Echinochloa crus-galli, 30 days
# Procedure: as §1
# Monochoria vaginalis = assay: Paddy herbicidal activity test; details: irrigated pot, 30 days
# Procedure: as §1
# Scirpus juncoides = assay: Paddy herbicidal activity test; details: irrigated pot, 30 days
# Procedure: as §1
# Chenopodium album [1] = assay: Weed foliar treatment test (Test 3, 1.0 to 2.0 leaf stage); details: foliar spray at 1.0 to 2.0 leaf stage of Digitaria ciliaris, 3 weeks
# Procedure: (§2) Soil was filled into a 1/6000 are pot followed by seeding with Digitaria ciliaris, Chenopodium album and Amaranthus retroflexus, covering with soil, and cultivating in a glass greenhouse at an average atmospheric temperature of 25° C. Wettable powders of Target Compound (I) shown in Table 1 prepared in compliance with the preparation examples were diluted with water to the prescribed amount of chemical and uniformly sprayed onto the weeds using 150 liters of sprayed water per 10 are when Digitaria ciliaris had grown to the 1.0 to 2.0 leaf stage. After treating for 3 weeks in a glass greenhouse at an average atmospheric temperature of 25° C., the herbicidal efficacy thereof was investigated. Evaluation of herbicidal efficacy was carried out in the same manner as the above-mentioned Test Example 1.
# Digitaria ciliaris [2] = assay: as above; details: foliar spray at 1.0 to 2.0 leaf stage of Digitaria ciliaris, 3 weeks
# Procedure: as §2
# Amaranthus retroflexus [3] = assay: as above; details: foliar spray at 1.0 to 2.0 leaf stage of Digitaria ciliaris, 3 weeks
# Procedure: as §2
# Chenopodium album [4] = assay: Farming soil treatment test; details: soil surface spray prior to weed growth, 30 days
# Procedure: (§3) Field soil was filled into a 1/6000 are pot followed by seeding with Digitaria ciliaris, Chenopodium album and Amaranthus retroflexus and covering with soil. Wettable powders of compounds of formula (I) shown in Table 1 prepared in compliance with the preparation examples were diluted with water to the prescribed amount of chemical and uniformly sprayed onto each soil surface layer using 100 liters of sprayed water per 10 are prior to weed growth following seeding. After treating for 30 days in a glass greenhouse at an average atmospheric temperature of 30° C., the herbicidal efficacy thereof was investigated. Evaluation of herbicidal efficacy was carried out in the same manner as the above-mentioned Test Example 1.
# Digitaria ciliaris [5] = assay: Farming soil treatment test; details: soil surface spray prior to weed growth, 30 days
# Procedure: as §3
# Amaranthus retroflexus [6] = assay: Farming soil treatment test; details: soil surface spray prior to weed growth, 30 days
# Procedure: as §3
# Galinsoga parviflora = assay: Weed foliar treatment test (Test 4, 4.0 to 5.0 leaf stage); details: 10 g a.i./10 a; foliar spray at 4.0 to 5.0 leaf stage of Digitaria ciliaris; 20 days
# Procedure: (§4) Field soil was filled into a 1/4500 are pot followed by seeding with Digitaria ciliaris and Galinsoga parviflora, covering with soil and cultivating in a glass greenhouse at an average atmospheric temperature of 25° C.
# (§5) Wettable powders of Target Compound (I) shown in Table 1 prepared in compliance with the preparation examples were diluted with water to the prescribed amount of chemical and uniformly sprayed onto the weeds using 100 liters of sprayed water per 10 are when Digitaria ciliaris had grown to the 4.0 to 5.0 leaf stage (plant height: 10 cm to 15 cm).
# (§6) After treating for 20 days in a glass greenhouse at an average atmospheric temperature of 25° C., the herbicidal efficacy thereof was investigated.
# (§7) Evaluation of herbicidal efficacy was carried out in the same manner as the above-mentioned Test Example 1.
# Digitaria ciliaris [7] = assay: as above; details: 10 g a.i./10 a; foliar spray at 4.0 to 5.0 leaf stage of Digitaria ciliaris (plant height 10 cm to 15 cm); 20 days
# Procedure: as §4, §5, §6, §7
compound,measurement,setting,value
COC=Nc1c(C#N)cnn1-c1nn2c(c1Cl)CCCC2 [Compound 33],"phytotoxicity, Oryza sativa",Oryza sativa; 1 g a.i./10 a,0 (0% to less than 10% (growth inhibition rate))
same,"phytotoxicity, Oryza sativa",Oryza sativa; 5 g a.i./10 a,1 (10% to less than 20%)
same,"herbicidal efficacy, Echinochloa crus-galli",Echinochloa crus-galli; 1 g a.i./10 a,9 (90% to less than 100%)
same,"herbicidal efficacy, Echinochloa crus-galli",Echinochloa crus-galli; 5 g a.i./10 a,9 (90% to less than 100%)
same,"herbicidal efficacy, Monochoria vaginalis",Monochoria vaginalis; 1 g a.i./10 a,9 (90% to less than 100%)
same,"herbicidal efficacy, Monochoria vaginalis",Monochoria vaginalis; 5 g a.i./10 a,10 (100%)
same,"herbicidal efficacy, Scirpus juncoides",Scirpus juncoides; 1 g a.i./10 a,9 (90% to less than 100%)
same,"herbicidal efficacy, Scirpus juncoides",Scirpus juncoides; 5 g a.i./10 a,9 (90% to less than 100%)
same,"herbicidal efficacy, Chenopodium album",Chenopodium album [1]; 5 g a.i./10 a,10 (100%)
same,"herbicidal efficacy, Chenopodium album",Chenopodium album [1]; 10 g a.i./10 a,10 (100%)
same,"herbicidal efficacy, Digitaria ciliaris",Digitaria ciliaris [2]; 5 g a.i./10 a,9 (90% to less than 100%)
same,"herbicidal efficacy, Digitaria ciliaris",Digitaria ciliaris [2]; 10 g a.i./10 a,9 (90% to less than 100%)
same,"herbicidal efficacy, Amaranthus retroflexus",Amaranthus retroflexus [3]; 5 g a.i./10 a,9 (90% to less than 100%)
same,"herbicidal efficacy, Amaranthus retroflexus",Amaranthus retroflexus [3]; 10 g a.i./10 a,9 (90% to less than 100%)
same,"herbicidal efficacy, Chenopodium album",Chenopodium album [4]; 5 g a.i./10 a,9 (90% to less than 100%)
same,"herbicidal efficacy, Chenopodium album",Chenopodium album [4]; 10 g a.i./10 a,9 (90% to less than 100%)
same,"herbicidal efficacy, Digitaria ciliaris",Digitaria ciliaris [5]; 5 g a.i./10 a,9 (90% to less than 100%)
same,"herbicidal efficacy, Digitaria ciliaris",Digitaria ciliaris [5]; 10 g a.i./10 a,9 (90% to less than 100%)
same,"herbicidal efficacy, Amaranthus retroflexus",Amaranthus retroflexus [6]; 5 g a.i./10 a,9 (90% to less than 100%)
same,"herbicidal efficacy, Amaranthus retroflexus",Amaranthus retroflexus [6]; 10 g a.i./10 a,9 (90% to less than 100%)
same,"herbicidal efficacy, Galinsoga parviflora",Galinsoga parviflora,10 (100%)
same,"herbicidal efficacy, Digitaria ciliaris",Digitaria ciliaris [7],9 (90% to less than 100%)
